Patent US4138491A, “Method for treating diabetes” (Daiichi Seiyaku Co., Ltd., priority 1976, dated 1979)

Legend:
serum lactate level = experiment: Influence on serum lactate level, repeated administration for 4 days; assay type: in vivo, normal rat
Procedure: The biguanide drugs heretofore used as a treatment for diabetes are said undesirably to cause acidosis due to an increase of serum lactate level when such drugs are repeatedly administered. The compounds of the present invention were repeatedly administered for 4 days to normal rats and the serum lactate level was determined every day to compare such with the administration of phenformine which is one example of a biguanide drug.
Compound A was repeatedly administered for 4 days to normal rats in a dosage of 200 mg/kg/day, and blood was sampled with the passage of time in order to determine the serum lactate level.

blood sugar level [1] = experiment: Blood sugar lowering activity, fasted rat; assay type: in vivo
Procedure: (§1) The compounds of the present invention were orally administered to normal rats, mice, dogs and hereditary diabetic mice(AYKK-mice), and the blood sugar lowering activity was examined.
(§2) Test animals which were used included animals which had been fasted for 24 hours to achieve an empty stomach, and animals which had been fed to achieve a full stomach without any restriction of diet. A sample aqueous solution or suspension was orally administered, and blood was sampled with the passage of time from the tail vein or the cephalic vein in order to determine the level of blood sugar by the glucose-oxidase method.

blood sugar level [2] = experiment: Glucose tolerance test in AYKK mice; assay type: in vivo, AYKK mouse; conditions: glucose 1 g/kg, sum of increments at 15, 30, 60, 90 min vs control, 100 = no improvement
Procedure: (§3) One index for the treatment of diabetes is to improve this glucose tolerance. The compound of the present invention was orally administered to normal rats, Streptozotocin-induced mildly diabetic rats and AYKK-mice, and thereafter glucose was administered intraperitoneally 1 hour later, and the glucose tolerance was examined. […] Further, a lowering of blood sugar in the glucose tolerance test using normal rats was examined with the passage of time, and the results obtained are given in Table 1 below.
(§4) A sample aqueous solution or suspension was orally administered to the test animals which had been fasted for 24 hours and one hour later glucose was intraperitoneally or subcutaneously administered to the test animals. Thereafter, blood was sampled from the tail vein with the passage of time in order to determine the blood sugar level by the glucose-oxidase method.
*5AYKK-mouse was obtained by mating a yellow mouse having symptoms of […]

blood sugar level [3] = experiment: Blood sugar lowering activity, fasted beagle; assay type: in vivo, beagle dog; conditions: 25 mg/kg PO
Procedure: as §1, §2

[4] = system: blood platelet aggregation induced by collagen in rat platelet rich plasma; experiment: Blood platelet aggregation inhibiting activity (collagen induced, in vitro); assay type: cell-based; conditions: read-out: Platelet Aggregation Inhibition Activity, ID50
Procedure: It is generally said that blood platelet aggregability is accelerated in a diabetes patient and that this secondarily causes blood vessel disorders. […] Thus, based on this the compounds of the present invention are expected to be useful in preventing and improving the secondary vasular lesions of diabetes mellitus.
Citrated rat blood was centrifuged in order to obtain platelet rich plasma, and to 0.4 ml of this plasma was added 50 μl of sample solution. To the resulting solution was added 50 μl of collagen suspension under stirring, and platelet aggregation reaction was determined according to the method of Born [Nature, Vol. 194, pp. 927 (1962)]. The concentration of the sample (ID50) which inhibits 50% of the aggregation reaction of the control without the test sample added is shown in Table 6 below.

blood sugar level [5] = experiment: Blood sugar lowering activity, fed mouse; assay type: in vivo
Procedure: as §1, §2

Acute toxicity (rat) = conditions: in vivo, read-out: Acute Toxicity (rat) ID50
blood sugar level [6] = experiment: Blood sugar lowering activity, fed AγKK (AYKK) mouse, hereditary diabetic; assay type: in vivo; conditions: for Blood Sugar Level (control = 100), 1 Hr / Blood Sugar Level (control = 100), 2 Hrs / Blood Sugar Level (control = 100), 3 Hrs / Blood Sugar Level (control = 100), 5 Hrs: fed AγKK mouse
Procedure: as §1, §2

blood sugar level [7] = experiment: Glucose tolerance test in normal rats (oral compound, glucose load 1 hour later); assay type: in vivo, normal rat; conditions: for Glucose Tolerance Improving Activity / Blood Glucose Level, 0 min / Blood Glucose Level, 15 min / Blood Glucose Level, 30 min / Blood Glucose Level, 60 min / Blood Glucose Level, 90 min / Blood Glucose Level, before glucose load (-60 min.): glucose 2 g/kg; for Glucose Tolerance Improving Activity: sum of increments at 15, 30, 60, 90 min vs control, 100 = no improvement
Procedure: as §3, §4

blood insulin [8] = experiment: Insulin releasing action, fed rats; assay type: in vivo, rat; conditions: 50 mg/kg iv
Procedure: (§5) Among the test animals fed rats were anesthetized by administration of pentobarbital (40 mg/kg, ip), and administered, intravenously with an isotonic sodium chloride solution of Compound A. An aqueous solution of the sample was orally administered to fed mice. In both cases blood was sampled from the tail vein with the passage of time, and the blood insulin was determined by the radioimmunoassay method of Morgen et al [Diabetes, Vol. 12, pp 115 (1963)]. At the same time blood sugar was also determined. […] The amount of insulin released in Table 4 was obtained by determining the difference between the blood insulin level at 5 points (5, 10, 20, 30, 40 minutes) during a 40 minute period after administration of the sample in the case of rats or 3 points (0.5, 1.0, 2.0 hours) during a 2 hour period after administration of the sample in the case of mice and the blood insulin level at 0 minute just before administration of the sample and then by summing up these differences.

blood insulin [9] = experiment: Insulin releasing action, fed mice; assay type: in vivo, mouse
Procedure: as §5

blood sugar level [10] = experiment: Glucose tolerance test in streptozotocin-induced mildly diabetic rats; assay type: in vivo, rat (Wistar strain); conditions: 20 mg/kg PO; glucose 1 g/kg; sum of increments at 15, 30, 60, 90 min vs control; 100 = no improvement
Procedure: as §3, §4
*4The streptozotocin-induced mildly diabetic rats were produced by […]

Structure (SMILES): [H]/N=C(/N)N/C(=N/[H])NCCc1ccccc1 [Phenformin]
- Serum Lactate Level, 0 Day (serum lactate level; 0 Day, Compound A 200 mg/kg/day (phenformin dose not given)): 1.061±0.099 μ mol/ml
- Serum Lactate Level, After 1 Day (serum lactate level; After 1 Day, Compound A 200 mg/kg/day (phenformin dose not given)): 2.086±0.066 μ mol/ml
- Serum Lactate Level, After 4 Days (serum lactate level; After 4 Days, Compound A 200 mg/kg/day (phenformin dose not given)): 3.009±0.641 μ mol/ml
- increase in serum lactate level (serum lactate level; repeated administration for 4 days, normal rats, in words): remarkable increase in serum lactate level

Structure (SMILES): c1ccc(C(CC2=NCCN2)c2ccccn2)cc1 (stereo not shown) [Compound B, 2-[2-phenyl-2-(2-pyridyl)]ethylimidazoline]
- Blood Sugar Level (control = 100), 1 Hr (blood sugar level [1]; 10 mg/kg PO): 71%
- Blood Sugar Level (control = 100), 2 Hrs (blood sugar level [1]; 10 mg/kg PO): 67%
- Blood Sugar Level (control = 100), 3 Hrs (blood sugar level [1]; 10 mg/kg PO): 58%
- Blood Sugar Level (control = 100), 5 Hrs (blood sugar level [1]; 10 mg/kg PO): 73%
- Blood Sugar Level (control = 100), 1 Hr (blood sugar level [1]; 25 mg/kg PO): 83%
- Blood Sugar Level (control = 100), 2 Hrs (blood sugar level [1]; 25 mg/kg PO): 68%
- Blood Sugar Level (control = 100), 3 Hrs (blood sugar level [1]; 25 mg/kg PO): 68%
- Blood Sugar Level (control = 100), 5 Hrs (blood sugar level [1]; 25 mg/kg PO): 76%
- Glucose Tolerance Improving Activity (blood sugar level [2]; 25 mg/kg PO): 62.7%
- Blood Sugar Level (control = 100), 1 Hr (blood sugar level [3]; 1 h): 76%
- Blood Sugar Level (control = 100), 2 Hrs (blood sugar level [3]; 2 h): 58%
- Blood Sugar Level (control = 100), 3 Hrs (blood sugar level [3]; 3 h): 70%
- Blood Sugar Level (control = 100), 5 Hrs (blood sugar level [3]; 5 h): 71%
- IC50 [4]: 300 µM
- Blood Sugar Level (control = 100), 1 Hr (blood sugar level [5]; 25 mg/kg PO): 77%
- Blood Sugar Level (control = 100), 2 Hrs (blood sugar level [5]; 25 mg/kg PO): 68%
- Blood Sugar Level (control = 100), 3 Hrs (blood sugar level [5]; 25 mg/kg PO): 78%
- Blood Sugar Level (control = 100), 5 Hrs (blood sugar level [5]; 25 mg/kg PO): 86%
- LD50 (Acute toxicity (rat)): 867 mg/kg
- Blood Sugar Level (control = 100), 1 Hr (blood sugar level [6]; 25 mg/kg PO): 77%
- Blood Sugar Level (control = 100), 2 Hrs (blood sugar level [6]; 25 mg/kg PO): 75%
- Blood Sugar Level (control = 100), 3 Hrs (blood sugar level [6]; 25 mg/kg PO): 72%
- Blood Sugar Level (control = 100), 5 Hrs (blood sugar level [6]; 25 mg/kg PO): 78%
- Glucose Tolerance Improving Activity (blood sugar level [7]; 10 mg/kg PO): 22.0%
- Blood Glucose Level, 0 min (blood sugar level [7]; 10 mg/kg): 74 ± 3 mg/dL
- Blood Glucose Level, 15 min (blood sugar level [7]; 10 mg/kg): 91 ± 9 mg/dL
- Blood Glucose Level, 30 min (blood sugar level [7]; 10 mg/kg): 91 ± 5 mg/dL
- Blood Glucose Level, 60 min (blood sugar level [7]; 10 mg/kg): 79 ± 4 mg/dL
- Blood Glucose Level, 90 min (blood sugar level [7]; 10 mg/kg): 68 ± 5 mg/dL
- Blood Glucose Level, before glucose load (-60 min.) (blood sugar level [7]; 10 mg/kg): 90 ± 2 mg/dL
- blood sugar level maintained after glucose load (blood sugar level [7]; normal rats, Table 1, in words): maintains the blood sugar level in the range of the fasting blood sugar level
- rise in blood sugar level due to the glucose load (blood sugar level [7]; normal rats, Table 1, in words): scarcely any rise in blood sugar level

Structure (SMILES): CCCCNC(=O)NS(=O)(=O)c1ccc(C)cc1 [Tolbutamide, reference compound]
- Blood Sugar Level (control = 100), 1 Hr (blood sugar level [1]; 10 mg/kg PO): 96%
- Blood Sugar Level (control = 100), 2 Hrs (blood sugar level [1]; 10 mg/kg PO): 89%
- Blood Sugar Level (control = 100), 3 Hrs (blood sugar level [1]; 10 mg/kg PO): 92%
- Blood Sugar Level (control = 100), 5 Hrs (blood sugar level [1]; 10 mg/kg PO): 91%
- Blood Sugar Level (control = 100), 1 Hr (blood sugar level [1]; 25 mg/kg PO): 90%
- Blood Sugar Level (control = 100), 2 Hrs (blood sugar level [1]; 25 mg/kg PO): 80%
- Blood Sugar Level (control = 100), 3 Hrs (blood sugar level [1]; 25 mg/kg PO): 76%
- Blood Sugar Level (control = 100), 5 Hrs (blood sugar level [1]; 25 mg/kg PO): 82%
- Glucose Tolerance Improving Activity (blood sugar level [2]; 50 mg/kg PO): 69.6%
- Blood Sugar Level (blood insulin [8]; after 90 minutes, control = 100): 56%
- Amount of Insulin Released (blood insulin [8]; sum of differences at 5, 10, 20, 30, 40 min): 189±26 μunit/ml
- Blood Sugar Level (control = 100), 1 Hr (blood sugar level [5]; 50 mg/kg PO): 95%
- Blood Sugar Level (control = 100), 2 Hrs (blood sugar level [5]; 50 mg/kg PO): 92%
- Blood Sugar Level (control = 100), 3 Hrs (blood sugar level [5]; 50 mg/kg PO): 74%
- Blood Sugar Level (control = 100), 5 Hrs (blood sugar level [5]; 50 mg/kg PO): 96%
- Blood Sugar Level (control = 100), 1 Hr (blood sugar level [6]; 50 mg/kg PO): 94%
- Blood Sugar Level (control = 100), 2 Hrs (blood sugar level [6]; 50 mg/kg PO): 86%
- Blood Sugar Level (control = 100), 3 Hrs (blood sugar level [6]; 50 mg/kg PO): 86%
- Blood Sugar Level (control = 100), 5 Hrs (blood sugar level [6]; 50 mg/kg PO): 92%
- effectiveness on AYKK-mice (blood sugar lowering) (blood sugar level [6]; oral, AYKK-mice, in words): uneffective
- Blood Sugar Level (blood insulin [9]; fed mice, 50 mg/kg po, after 2 hours, control = 100): 95.7%
- Amount of Insulin Released (blood insulin [9]; fed mice, 50 mg/kg po, sum of differences at 0.5, 1.0, 2.0 hours): -2.2±3.3 μunit/ml
- insulin releasing action in mice (blood insulin [9]; mice, in words): little action on insulin release
- Glucose Tolerance Improving Activity (blood sugar level [10]): 67.4%
- Glucose Tolerance Improving Activity (blood sugar level [7]; 20 mg/kg PO): 64.5%
- Blood Glucose Level, 0 min (blood sugar level [7]; 20 mg/kg): 79 ± 2 mg/dL
- Blood Glucose Level, 15 min (blood sugar level [7]; 20 mg/kg): 121 ± 5 mg/dL
- Blood Glucose Level, 30 min (blood sugar level [7]; 20 mg/kg): 114 ± 5 mg/dL
- Blood Glucose Level, 60 min (blood sugar level [7]; 20 mg/kg): 98 ± 5 mg/dL
- Blood Glucose Level, 90 min (blood sugar level [7]; 20 mg/kg): 90 ± 4 mg/dL
- Blood Glucose Level, before glucose load (-60 min.) (blood sugar level [7]; 20 mg/kg): 80 ± 2 mg/dL
